Literature values in publication PMC6024615, “Effect of Biliary Drainage on the Toxicity and Toxicokinetics of Amanita exitialis in Beagles” (Toxins, 2018).

What was measured:
[1] = intravenous injection, general anesthesia, radioactivity; cited from earlier work
Experimental: In previous studies, the radioactivity of labeled amatoxins in the serum of dogs or pigs was determined after an intravenous injection of amatoxins; bile was collected and measured using tubes tied to the bile duct under general anesthesia. More than 80% of 14C-methyl-γ-amanitin (14C-A) was eliminated in the urine, with less than 10% in the bile. Different toxin exposure patterns might result in different toxicokinetic data. 14C-A and 3H-O-methyl-dehydroxymethyl-α-amanitin (3H-A) were used for toxicokinetic studies in the animals; the animals were under general anesthesia du ...

[2] = human and rats; cited from earlier work
Experimental: Vesconi et al. found amatoxins were detectable in the serum of 65% patients within 30 h after ingestion of Amanita phalloides. In another study in patients intoxicated with Amanita phalloides, amatoxins were detectable in the plasma of most patients within 36 h after ingestion. […] These toxins were rapidly detected (30 min) in plasma and ...

| Substance | share eliminated in the bile [1] | share eliminated in the urine [1] | reduction in absorption from the intestinal lumen caused by bile exclusion [2] |
| --- | --- | --- | --- |
| 14C-methyl-γ-amanitin | less than 10% | More than 80% |  |
| vitamin B12 |  |  | 50–60% |
